Experimental data reported in ChEMBL document CHEMBL1201862, “PubChem BioAssay data set” (2004).
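Cultured in 96-well plates, cells were exposed to test compound for 48 hours across five concentrations. GI50 is the concentration that inhibits growth by half.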 Active and inactive are the calls of the source. Rule as the data show it: active = GI50 up to about 1.1 µM and inactive = higher.

Columns and labels:
Assay in all cases: DTP human tumour cell line panel, 48 h
[1] = test system: SN12C
[2] = test system: Malme-3M
[3] = test system: HCT-116
[4] = test system: M14
[5] = test system: SK-MEL-5
[6] = test system: OVCAR-5
[7] = test system: SK-OV-3
[8] = test system: CAKI-1
[9] = test system: SR
[10] = test system: HT-29
[11] = test system: NCI/ADR-RES
[12] = test system: MDA-MB-231
[13] = test system: SK-MEL-28
[14] = test system: SNB-75
[15] = test system: RPMI-8226
[16] = test system: UACC-62
[17] = test system: A498
[18] = test system: SW-620
[19] = test system: UACC-257
[20] = test system: HL-60

Measured: GI50

CC(C)(C)c1ccc(O)c(CN(Cc2cc(C(C)(C)C)ccc2O)C2CCCCC2)c1
inactive: [1] 16.4 µM | [2] 15.8 µM | [3] 16.2 µM | [4] 13.6 µM | [5] 15.8 µM | [6] 17.7 µM | [7] 24.4 µM | [8] 26.2 µM | [9] 18.5 µM | [10] 16.1 µM | [11] 20.3 µM | [12] 18 µM | [13] 14.5 µM | [14] 23.3 µM | [15] 8.73 µM | [16] 15.7 µM | [17] 17.5 µM | [18] 18.3 µM | [19] 18.3 µM

O=C(Nc1ccn(C2CC(O)C(COC(c3ccccc3)(c3ccccc3)c3ccccc3)O2)c(=O)n1)c1ccccc1 (configuration not stated)
inactive: [1] 1.89 µM | [2] 2.61 µM | [3] 2 µM | [4] 2.3 µM | [5] 2.33 µM | [6] 1.87 µM | [7] 11.5 µM | [8] 6.32 µM | [9] 2.44 µM | [20] 2.61 µM | [10] 1.71 µM | [11] 2.46 µM | [12] 3.05 µM | [13] 3.08 µM | [14] 4.66 µM | [15] 2.53 µM | [16] 5.98 µM | [18] 2.58 µM | [19] 12.7 µM

OCC1=C[C@@](COCc2ccccc2)(OCc2ccccc2)[C@@H](OCc2ccccc2)[C@@H]1OCc1ccccc1
inactive: [1] 2.86 µM | [2] 18 µM | [3] 12.2 µM | [4] 23.9 µM | [5] 15.7 µM | [6] 26.3 µM | [8] 14.5 µM | [9] 12.2 µM | [20] 23.4 µM | [10] 12.7 µM | [11] 3.61 µM | [12] 9.08 µM | [13] 35.3 µM | [15] 2.49 µM | [16] 17.3 µM | [17] 10.9 µM | [18] 18.5 µM | [19] 22.6 µM

COc1ccc(/C=C2/SC(c3ccccc3)N(NC(=O)CCCCCCCCC(=O)NN3C(=O)/C(=C\c4ccc(OC)c(OC)c4)SC3c3ccccc3)C2=O)cc1OC (configuration not stated)
inactive: [1] > 100 µM | [3] 29.1 µM | [4] > 100 µM | [6] > 100 µM | [7] 48.6 µM | [8] 53.6 µM | [9] 15.6 µM | [10] 71.8 µM | [11] 60.3 µM | [12] 74.6 µM | [13] 48 µM | [14] 35.2 µM | [15] 20.7 µM | [16] 29 µM | [17] 57.4 µM | [18] 54.8 µM | [19] 39.4 µM

CCCCCCCCCCCCCCCCP(=O)([O-])OCC[N+](C)(C)C
inactive: [1] 12.9 µM | [2] 21.3 µM | [3] 14.8 µM | [4] 15.3 µM | [5] 16 µM | [6] 8.55 µM | [7] 7.4 µM | [8] 12.1 µM | [9] 10.4 µM | [10] 12.7 µM | [11] 18.7 µM | [12] 20.5 µM | [13] 18.5 µM | [14] 14.8 µM | [15] 15.3 µM | [16] 13.9 µM | [17] 14.5 µM | [18] 14.5 µM | [19] 16.9 µM

Cc1ccc2nc(NC(=O)/C(Cc3nc4ccc(Cl)cc4nc3O)=N\NC(C)(C)C)sc2c1
inactive: [1] > 100 µM | [3] > 100 µM | [4] > 100 µM | [5] > 10 µM | [6] > 100 µM | [7] > 100 µM | [8] 41.8 µM | [9] > 100 µM | [20] > 100 µM | [10] > 100 µM | [11] > 100 µM | [12] > 100 µM | [13] > 100 µM | [14] 15.5 µM | [15] > 100 µM | [16] > 100 µM | [17] > 100 µM | [18] > 100 µM | [19] > 100 µM

Cc1c(N2C(=O)/C(=C/c3ccc(Cl)cc3)N=C2c2ccccc2)c(=O)n(-c2ccccc2)n1C
inactive: [1] 34.1 µM | [2] 31.5 µM | [3] 32.3 µM | [4] 36.8 µM | [5] 17.8 µM | [6] 49.2 µM | [7] 36.5 µM | [8] 34.6 µM | [9] 30.5 µM | [20] 27.4 µM | [10] 26.6 µM | [11] 44.5 µM | [12] 33.8 µM | [14] 22.5 µM | [15] 17.8 µM | [16] 21.1 µM | [18] 31.9 µM | [19] 18.3 µM

CCN(CC)CCNC(=O)c1cc2cc(NC(=O)c3cc4cc(NC(=O)c5cc6cc(N)ccc6[nH]5)ccc4[nH]3)ccc2[nH]1
inactive: [1] > 100 µM | [2] > 100 µM | [4] > 100 µM | [5] > 100 µM | [6] > 100 µM | [7] > 100 µM | [8] > 100 µM | [9] > 100 µM | [10] > 100 µM | [11] > 100 µM | [12] > 100 µM | [13] > 100 µM | [14] > 100 µM | [15] > 100 µM | [16] > 100 µM | [17] > 100 µM | [18] > 100 µM | [19] > 100 µM
